Results: patent US20060008858A1, “Osteoblast factor(s) that regulates human prostate cancer migration to and invasion of bone” (The Regents of the University of Michigan, priority 2004, published 2006)

System: LNCaP-C4-2B and VCaP human CaP cells
Assay: Chemotaxtic migration assay (cell culture inserts)
Format: cell-based
Details: osteoblast-secreted proteins evaluated in migration assays; FIG. 2
Procedure: Conditioned medium from human primary pre-osteoblast cells was prepared by plating 5×10^5 cells in 10 ml culture medium (10% FBS DMEM medium) to 100 mm tissue culture dishes. Following 24 hrs to allow for adherence, the medium was removed and the cells washed three times with 10 ml/dish PBS. Washed cells were then incubated 72 hrs in 10 ml/dish serum-free DMEM medium supplemented with 1% (v/v) ITS+(Becton Dickenson, Bedford. Mass.) Medium collected after 72 hrs was filtered through 0.2 μm filter and used directly in in vitro invasion and migration assays with human prostate cancer cells.
Chemotaxtic migration assays were performed as described with modifications (Jeffers et al., 1996). Briefly, cells were harvested with trypsin, washed once with serum-free medium, and resuspended in serum-free DMEM medium to a concentration of 5×10^4 viable cells/ml. 25,000 cells/0.5 ml were then added to 24-well cell culture inserts with a […] pore size (Becton Dickinson, Bedford, Mass.). The inserts were placed in wells containing 0.5 ml of serum-free DMEM, 72 hr serum-free conditioned medium from human primary osteoblasts and incubated for 48 hrs in 5% CO2-95% air at 37° C. […] The total number of invading cells/filter was quantified under 10× magnification. […]

Substance: IL-6: osteoblast-secreted protein, interleukin 6
- effect on CaP cell migration: stimulatory

Substance: basic Fibroblast Growth Factor: osteoblast-secreted protein, basic fibroblast growth factor
- effect on CaP cell migration: stimulatory
